Test results taken from ChEMBL document CHEMBL5463721, “Data for DCP probe WEB2086” (2023).

What was measured:
[1] = target: 5-hydroxytryptamine receptor 1B (Homo sapiens) (UniProt P28222); test: 5-HT1B Eurofins-Cerep binding assay; parameters: ligand concentration 1 nM; conditions: Compound concentration 10.0 uM
[2] = target: Cannabinoid receptor 1 (Homo sapiens) (UniProt P21554); test: CB1 Eurofins-Cerep binding assay; conditions: Compound concentration 10.0 uM
[3] = target: Prostaglandin G/H synthase 1 (Homo sapiens) (UniProt P23219); test: Inhibitor of COX-1 in the Eurofins Cerep SafetyScreen44 (BI) by Fluorimetry (Cerep_4173); conditions: Compound concentration 10.0 uM
[4] = target: Prostaglandin G/H synthase 2 (Homo sapiens) (UniProt P35354); test: Inhibitor of COX-2 in the Eurofins Cerep SafetyScreen44 (BI) by Fluorimetry (Cerep_4186); conditions: Compound concentration 10.0 uM
[5] = target: Kappa-type opioid receptor (Homo sapiens) (UniProt P41145); test: kappa (KOP) Eurofins-Cerep binding assay; conditions: Compound concentration 10.0 uM
Sequence of Kappa-type opioid receptor (Homo sapiens) (P41145 whole entry): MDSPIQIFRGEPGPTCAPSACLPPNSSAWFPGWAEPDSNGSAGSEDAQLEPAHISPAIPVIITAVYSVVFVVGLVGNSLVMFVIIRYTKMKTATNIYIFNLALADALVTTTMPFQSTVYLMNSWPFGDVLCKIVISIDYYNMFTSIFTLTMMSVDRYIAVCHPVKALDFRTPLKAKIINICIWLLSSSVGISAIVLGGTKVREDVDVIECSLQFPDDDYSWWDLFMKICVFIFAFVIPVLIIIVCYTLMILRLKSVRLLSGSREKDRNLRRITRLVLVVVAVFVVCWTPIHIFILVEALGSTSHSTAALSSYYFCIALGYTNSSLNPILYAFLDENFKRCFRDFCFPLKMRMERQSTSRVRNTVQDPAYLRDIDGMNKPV

[6] = target: 5-hydroxytryptamine receptor 1A (Homo sapiens) (UniProt P08908); test: 5-HT1A Eurofins-Cerep binding assay; parameters: ligand concentration 0.5 nM; conditions: Compound concentration 10.0 uM
[7] = target: 5-hydroxytryptamine receptor 2A (Homo sapiens) (UniProt P28223); test: Agonist activity in the Eurofins Cerep SafetyScreen44 (BI) against 5HT2AH_AGON by Scintillation counting (Cerep_471); conditions: Compound concentration 10.0 uM
[8] = target: 5-hydroxytryptamine receptor 2B (Homo sapiens) (UniProt P41595); test: 5-HT2B Eurofins-Cerep binding assay; conditions: Compound concentration 10.0 uM
[9] = target: 5-hydroxytryptamine receptor 3A (Homo sapiens) (UniProt P46098); test: 5-HT3 Eurofins-Cerep binding assay; parameters: ligand concentration 0.5 nM; conditions: Compound concentration 10.0 uM
Sequence of 5-hydroxytryptamine receptor 3A (Homo sapiens) (P46098 whole entry): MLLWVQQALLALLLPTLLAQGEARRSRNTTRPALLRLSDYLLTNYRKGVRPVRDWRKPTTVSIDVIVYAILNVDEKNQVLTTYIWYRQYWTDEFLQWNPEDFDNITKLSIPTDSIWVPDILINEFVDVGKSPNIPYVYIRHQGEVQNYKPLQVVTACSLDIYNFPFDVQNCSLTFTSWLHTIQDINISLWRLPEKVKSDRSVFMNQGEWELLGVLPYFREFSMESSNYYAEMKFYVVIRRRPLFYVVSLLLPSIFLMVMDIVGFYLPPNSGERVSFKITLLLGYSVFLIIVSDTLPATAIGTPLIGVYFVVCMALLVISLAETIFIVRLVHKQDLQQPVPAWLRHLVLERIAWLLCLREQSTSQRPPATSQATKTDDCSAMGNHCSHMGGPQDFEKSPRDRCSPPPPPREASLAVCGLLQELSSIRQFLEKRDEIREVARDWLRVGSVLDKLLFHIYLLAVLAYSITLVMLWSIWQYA

[10] = target: Adenosine receptor A2a (Homo sapiens) (UniProt P29274); test: A2A Eurofins-Cerep binding assay; parameters: ligand concentration 6 nM; conditions: Compound concentration 10.0 uM
Sequence of Adenosine receptor A2a (Homo sapiens) (P29274 whole entry): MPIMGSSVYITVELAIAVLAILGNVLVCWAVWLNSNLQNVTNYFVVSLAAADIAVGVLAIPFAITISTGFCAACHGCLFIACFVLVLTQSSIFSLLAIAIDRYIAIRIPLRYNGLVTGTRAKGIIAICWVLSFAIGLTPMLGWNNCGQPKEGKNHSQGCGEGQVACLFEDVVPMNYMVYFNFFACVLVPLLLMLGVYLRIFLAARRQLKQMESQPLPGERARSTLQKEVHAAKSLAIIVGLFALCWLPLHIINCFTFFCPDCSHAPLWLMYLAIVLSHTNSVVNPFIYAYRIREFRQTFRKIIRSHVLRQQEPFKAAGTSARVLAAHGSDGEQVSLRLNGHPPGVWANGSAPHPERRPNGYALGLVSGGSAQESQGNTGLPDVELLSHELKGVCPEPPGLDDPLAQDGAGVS

[11] = target: Angiotensin-converting enzyme (Homo sapiens) (UniProt P12821); test: Activity against ACE(HU_AMTCH400) in the Eurofins Cerep SafetyScreen44 (BI) by Photometry (Cerep_3441); conditions: Compound concentration 10.0 uM
[12] = target: Alpha-1A adrenergic receptor (Homo sapiens) (UniProt P35348); test: Agonist activity in the Eurofins Cerep SafetyScreen44 (BI) against ALPHA1AH_ANTAG by Scintillation counting (Cerep_2338); conditions: Compound concentration 10.0 uM
[13] = target: Alpha-2A adrenergic receptor (Homo sapiens) (UniProt P08913); test: Inhibitor of ALPHA2A/HU in the Eurofins Cerep SafetyScreen44 (BI) by Radioactive Assay (Cerep_13); conditions: Compound concentration 10.0 uM
Sequence of Alpha-2A adrenergic receptor (Homo sapiens) (P08913 whole entry): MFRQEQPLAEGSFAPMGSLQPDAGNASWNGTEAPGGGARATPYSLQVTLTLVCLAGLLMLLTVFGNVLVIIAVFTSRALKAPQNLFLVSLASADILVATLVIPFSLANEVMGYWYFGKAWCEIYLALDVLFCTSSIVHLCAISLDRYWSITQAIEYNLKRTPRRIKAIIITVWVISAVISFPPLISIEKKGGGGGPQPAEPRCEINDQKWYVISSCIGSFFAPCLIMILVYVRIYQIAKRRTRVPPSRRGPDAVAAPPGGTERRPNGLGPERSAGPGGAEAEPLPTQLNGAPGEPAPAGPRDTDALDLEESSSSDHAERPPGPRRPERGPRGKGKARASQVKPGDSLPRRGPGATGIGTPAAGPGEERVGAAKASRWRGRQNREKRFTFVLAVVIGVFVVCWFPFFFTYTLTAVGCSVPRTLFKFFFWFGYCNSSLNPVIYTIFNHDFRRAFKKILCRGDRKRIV

[14] = target: Beta-1 adrenergic receptor (Homo sapiens) (UniProt P08588); test: beta 1 Eurofins-Cerep binding assay; parameters: ligand concentration 0.3 nM; conditions: Compound concentration 10.0 uM
[15] = target: Beta-2 adrenergic receptor (Homo sapiens) (UniProt P07550); test: beta 2 Eurofins-Cerep binding assay; conditions: Compound concentration 10.0 uM
Rattus norvegicus [16] = species: Rattus norvegicus; test: Activity against BZD/CENTR/R in the Eurofins Cerep SafetyScreen44 (BI) by Radioactive Assay (Cerep_28); assay type: protein-complex assay; conditions: Compound concentration 10.0 uM
[17] = target: L-type calcium channel (dihydropyridine site), Cav1.2 alpha-1C (Rattus norvegicus, UniProt P22002); test: Inhibitor of CA+/DHPSI/R in the Eurofins Cerep SafetyScreen44 (BI) by Radioactive Assay (Cerep_161); assay type: protein assay; parameters: scale not given: the % may be the effect or the level left; conditions: rat brain, probe [3H](+)PN200-110, compound concentration 10 uM, read-out: % Ctrl
[18] = target: Cannabinoid receptor 2 (Homo sapiens) (UniProt P34972); test: Activity against CB2/PERIPH/H in the Eurofins Cerep SafetyScreen44 (BI) by Radioactive Assay (Cerep_37); conditions: Compound concentration 10.0 uM
[19] = target: Cholecystokinin receptor type A (Homo sapiens) (UniProt P32238); test: CCK1 (CCKA) Eurofins-Cerep binding assay; parameters: ligand concentration 0.08 nM; conditions: Compound concentration 10.0 uM
Sequence of Cholecystokinin receptor type A (Homo sapiens) (P32238 whole entry): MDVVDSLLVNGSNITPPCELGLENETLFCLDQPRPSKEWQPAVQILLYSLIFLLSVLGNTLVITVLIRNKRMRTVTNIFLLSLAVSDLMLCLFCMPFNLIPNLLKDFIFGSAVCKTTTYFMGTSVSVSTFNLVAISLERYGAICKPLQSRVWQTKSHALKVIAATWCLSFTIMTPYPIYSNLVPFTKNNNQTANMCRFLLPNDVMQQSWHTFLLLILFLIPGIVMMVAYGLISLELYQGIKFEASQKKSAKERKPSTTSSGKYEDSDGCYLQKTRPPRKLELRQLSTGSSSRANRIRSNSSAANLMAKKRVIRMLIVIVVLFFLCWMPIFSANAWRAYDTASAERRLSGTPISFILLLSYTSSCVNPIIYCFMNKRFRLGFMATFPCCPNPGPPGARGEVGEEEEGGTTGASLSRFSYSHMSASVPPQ

[20] = target: D(1A) dopamine receptor (Homo sapiens) (UniProt P21728); test: D1 Eurofins-Cerep binding assay; parameters: ligand concentration 0.3 nM; conditions: Compound concentration 10.0 uM
[21] = target: D(2) dopamine receptor (Homo sapiens) (UniProt P14416); test: Agonist activity in the Eurofins Cerep SafetyScreen44 (BI) against D2SH_AGON by Scintillation counting (Cerep_1322); conditions: Compound concentration 10.0 uM
[22] = target: Sodium-dependent dopamine transporter (Homo sapiens) (UniProt Q01959); test: dopamine transporter Eurofins-Cerep binding assay; conditions: Compound concentration 10.0 uM
[23] = target: Delta-type opioid receptor (Homo sapiens) (UniProt P41143); test: delta (DOP) Eurofins-Cerep binding assay; parameters: ligand concentration 0.5 nM; conditions: Compound concentration 10.0 uM
[24] = target: Endothelin-1 receptor (Homo sapiens) (UniProt P25101); test: ETA Eurofins-Cerep binding assay; parameters: ligand concentration 0.03 nM; conditions: Compound concentration 10.0 uM
[25] = target: Glucocorticoid receptor (Homo sapiens) (UniProt P04150); test: GR Eurofins-Cerep binding assay; conditions: Compound concentration 10.0 uM
[26] = target: Histamine H1 receptor (Homo sapiens) (UniProt P35367); test: H1 Eurofins-Cerep binding assay; parameters: ligand concentration 1 nM; conditions: Compound concentration 10.0 uM
[27] = target: Histamine H2 receptor (Homo sapiens) (UniProt P25021); test: H2 Eurofins-Cerep binding assay; parameters: ligand concentration 0.075 nM; conditions: Compound concentration 10.0 uM
Sequence of Histamine H2 receptor (Homo sapiens) (P25021 whole entry): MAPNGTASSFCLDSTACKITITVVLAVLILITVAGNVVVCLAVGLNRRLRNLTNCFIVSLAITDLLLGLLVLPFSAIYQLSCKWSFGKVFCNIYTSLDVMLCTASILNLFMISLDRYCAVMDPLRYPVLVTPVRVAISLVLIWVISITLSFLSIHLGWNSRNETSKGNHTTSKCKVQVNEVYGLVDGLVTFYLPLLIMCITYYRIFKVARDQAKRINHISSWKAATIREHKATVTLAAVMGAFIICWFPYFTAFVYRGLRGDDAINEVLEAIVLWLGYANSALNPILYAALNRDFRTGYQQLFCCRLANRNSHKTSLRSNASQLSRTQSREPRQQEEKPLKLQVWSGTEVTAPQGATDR

hERG (KCNH2) = hERG (KCNH2) (Homo sapiens, UniProt Q12809); test: Inhibitor of HERG_DOFETILIDE in the Eurofins Cerep SafetyScreen44 (BI) by Scintillation counting (Cerep_4094); parameters: scale not given: the % may be the effect or the level left; conditions: probe [3H] dofetilide, compound concentration 10 uM, read-out: % Ctrl
Sequence of hERG (KCNH2) (Q12809 whole entry): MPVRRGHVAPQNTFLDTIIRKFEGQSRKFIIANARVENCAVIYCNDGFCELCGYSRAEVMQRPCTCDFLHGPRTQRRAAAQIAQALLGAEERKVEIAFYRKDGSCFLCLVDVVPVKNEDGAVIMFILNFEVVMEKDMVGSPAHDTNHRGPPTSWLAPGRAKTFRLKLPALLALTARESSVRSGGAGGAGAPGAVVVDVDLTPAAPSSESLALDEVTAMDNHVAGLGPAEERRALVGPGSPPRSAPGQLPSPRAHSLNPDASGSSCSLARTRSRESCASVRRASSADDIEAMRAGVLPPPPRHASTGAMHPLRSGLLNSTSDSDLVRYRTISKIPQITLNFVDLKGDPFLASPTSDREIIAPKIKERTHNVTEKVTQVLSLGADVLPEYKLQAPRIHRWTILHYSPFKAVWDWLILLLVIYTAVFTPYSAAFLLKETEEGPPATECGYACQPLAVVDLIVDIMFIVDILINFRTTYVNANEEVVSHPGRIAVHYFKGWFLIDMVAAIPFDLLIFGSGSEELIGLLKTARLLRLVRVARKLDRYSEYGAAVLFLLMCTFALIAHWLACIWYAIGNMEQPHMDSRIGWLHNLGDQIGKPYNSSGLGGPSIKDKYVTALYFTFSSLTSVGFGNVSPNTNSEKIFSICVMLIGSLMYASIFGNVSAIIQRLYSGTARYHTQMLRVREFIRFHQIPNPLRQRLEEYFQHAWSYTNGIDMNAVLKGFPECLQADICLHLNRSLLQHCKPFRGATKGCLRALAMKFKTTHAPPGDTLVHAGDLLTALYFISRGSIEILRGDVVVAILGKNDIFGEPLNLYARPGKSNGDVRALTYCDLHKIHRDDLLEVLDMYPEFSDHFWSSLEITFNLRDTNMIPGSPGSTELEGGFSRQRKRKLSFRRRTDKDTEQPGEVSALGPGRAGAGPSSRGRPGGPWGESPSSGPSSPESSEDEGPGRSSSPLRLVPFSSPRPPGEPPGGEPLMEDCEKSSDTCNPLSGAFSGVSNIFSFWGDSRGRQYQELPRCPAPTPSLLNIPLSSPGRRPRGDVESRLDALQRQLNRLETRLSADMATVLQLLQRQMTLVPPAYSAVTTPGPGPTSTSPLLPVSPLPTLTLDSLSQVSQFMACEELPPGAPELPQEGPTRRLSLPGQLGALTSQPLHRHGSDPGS

Rattus norvegicus [28] = species: Rattus norvegicus; test: KV channel Eurofins-Cerep binding assay; parameters: ligand concentration 0.01 nM; conditions: Compound concentration 10.0 uM
[29] = target: Tyrosine-protein kinase Lck (Homo sapiens) (UniProt P06239); test: Inhibitor of LCK_CE in the Eurofins Cerep SafetyScreen44 (BI) by lanthanide chelation excitation (Cerep_2906); conditions: Compound concentration 10.0 uM
[30] = target: Muscarinic acetylcholine receptor M1 (Homo sapiens) (UniProt P11229); test: M1 Eurofins-Cerep binding assay; parameters: ligand concentration 2 nM; conditions: Compound concentration 10.0 uM
[31] = target: Muscarinic acetylcholine receptor M2 (Homo sapiens) (UniProt P08172); test: M2 Eurofins-Cerep binding assay; parameters: ligand concentration 2 nM; conditions: Compound concentration 10.0 uM
[32] = target: Muscarinic acetylcholine receptor M3 (Homo sapiens) (UniProt P20309); test: M3 Eurofins-Cerep binding assay; parameters: ligand concentration 0.2 nM; conditions: Compound concentration 10.0 uM
[33] = target: MAO-A (amine oxidase [flavin-containing] A) (Homo sapiens, UniProt P21397); test: Agonist activity in the Eurofins Cerep SafetyScreen44 (BI) against MAO-A_ANTAG by Scintillation counting (Cerep_443); parameters: scale not given: the % may be the effect or the level left; conditions: rat, compound concentration 10 uM, read-out: % Ctrl
Sequence of MAO-A (amine oxidase [flavin-containing] A) (P21397 whole entry): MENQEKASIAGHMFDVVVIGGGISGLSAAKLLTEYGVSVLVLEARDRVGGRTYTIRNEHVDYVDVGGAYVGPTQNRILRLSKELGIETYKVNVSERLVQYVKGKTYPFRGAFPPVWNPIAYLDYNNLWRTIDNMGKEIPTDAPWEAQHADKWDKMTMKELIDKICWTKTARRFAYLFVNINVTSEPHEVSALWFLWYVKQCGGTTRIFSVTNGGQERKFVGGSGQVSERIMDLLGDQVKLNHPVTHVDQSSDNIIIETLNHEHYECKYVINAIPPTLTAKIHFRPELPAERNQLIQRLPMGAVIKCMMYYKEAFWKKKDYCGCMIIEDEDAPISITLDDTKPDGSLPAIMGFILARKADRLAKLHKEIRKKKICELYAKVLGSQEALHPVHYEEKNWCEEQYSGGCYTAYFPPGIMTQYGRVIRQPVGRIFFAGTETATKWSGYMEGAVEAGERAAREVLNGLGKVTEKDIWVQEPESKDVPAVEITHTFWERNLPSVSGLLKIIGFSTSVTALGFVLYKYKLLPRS

[34] = target: Mu-type opioid receptor (Homo sapiens) (UniProt P35372); test: mu (MOP) Eurofins-Cerep binding assay; parameters: ligand concentration 0.5 nM; conditions: Compound concentration 10.0 uM
[35] = target: Sodium-dependent noradrenaline transporter (Homo sapiens) (UniProt P23975); test: norepinephrine transporter Eurofins-Cerep binding assay; parameters: ligand concentration 1 nM; conditions: Compound concentration 10.0 uM
Sequence of Sodium-dependent noradrenaline transporter (Homo sapiens) (P23975 whole entry): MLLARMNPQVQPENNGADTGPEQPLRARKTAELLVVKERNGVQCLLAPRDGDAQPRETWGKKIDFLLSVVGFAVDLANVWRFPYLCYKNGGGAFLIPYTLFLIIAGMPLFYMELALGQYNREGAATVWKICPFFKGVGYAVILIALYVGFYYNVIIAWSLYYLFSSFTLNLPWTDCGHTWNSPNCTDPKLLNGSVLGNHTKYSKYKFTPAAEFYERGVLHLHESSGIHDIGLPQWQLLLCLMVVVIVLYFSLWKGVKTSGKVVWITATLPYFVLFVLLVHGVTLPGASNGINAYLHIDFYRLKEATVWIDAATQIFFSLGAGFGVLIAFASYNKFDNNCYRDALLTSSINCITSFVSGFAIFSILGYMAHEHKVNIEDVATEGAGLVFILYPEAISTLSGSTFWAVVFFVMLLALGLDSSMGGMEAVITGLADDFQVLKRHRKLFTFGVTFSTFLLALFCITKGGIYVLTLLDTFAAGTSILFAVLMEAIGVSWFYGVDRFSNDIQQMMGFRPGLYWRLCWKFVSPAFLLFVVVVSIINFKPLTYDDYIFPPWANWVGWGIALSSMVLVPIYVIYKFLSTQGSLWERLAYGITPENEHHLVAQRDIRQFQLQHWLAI

[36] = target: Glutamate NMDA receptor (Rattus norvegicus) (UniProt P35439+Q00959+Q00960+Q00961+Q62645+Q8VHN2+Q9R1M7); test: Inhibitor of NMDA/R in the Eurofins Cerep SafetyScreen44 (BI) by Radioactive Assay (Cerep_66); assay type: protein-complex assay; conditions: Compound concentration 10.0 uM
Homo sapiens = species: Homo sapiens; test: Agonist activity in the Eurofins Cerep SafetyScreen44 (BI) against N_NEURO_A4B2 by Radioligand Binding (Cerep_3029); assay type: protein-complex assay; conditions: Compound concentration 10.0 uM
[37] = target: cGMP-inhibited 3',5'-cyclic phosphodiesterase 3A (Homo sapiens) (UniProt Q14432); test: Inhibitor of PDE3A in the Eurofins Cerep SafetyScreen44 (BI) by HTRF-homogeneous time resolved fluoresce (Cerep_4072); conditions: Compound concentration 10.0 uM
[38] = target: 3',5'-cyclic-AMP phosphodiesterase 4D (Homo sapiens) (UniProt Q08499); test: Inhibitor of PDE4D2 in the Eurofins Cerep SafetyScreen44 (BI) by Scintillation counting (Cerep_4077); conditions: Compound concentration 10.0 uM
[39] = target: Sodium-dependent serotonin transporter (Homo sapiens) (UniProt P31645); test: 5-HT transporter Eurofins-Cerep binding assay; parameters: ligand concentration 2 nM; conditions: Compound concentration 10.0 uM
[40] = target: Vasopressin V1a receptor (Homo sapiens) (UniProt P37288); test: V1a Eurofins-Cerep binding assay; parameters: ligand concentration 0.3 nM; conditions: Compound concentration 10.0 uM
[41] = target: Platelet-activating factor receptor (Homo sapiens, UniProt P25105); test: PAF Receptor Binding
[42] = target: Androgen receptor (Homo sapiens) (UniProt P10275); conditions: Compound concentration 10.0 uM
Description: Activity against ANDROGEN/H in the Eurofins Cerep SafetyScreen44 (BI) by Radioactive Assay (Cerep_933)

Cc1nnc2n1-c1sc(CCC(=O)N3CCOCC3)cc1C(c1ccccc1Cl)=NC2 [APAFANT]
residual activity [1]: 91%
residual activity [2]: 103%
residual activity [3]: 96%
residual activity [4]: 47%
residual activity [5]: 95%
residual activity [6]: 101%
residual activity [7]: 114%
residual activity [8]: 86%
residual activity [9]: 102%
residual activity [10]: 104%
residual activity [11]: 96%
residual activity [12]: 99%
residual activity [13]: 100%
residual activity [14]: 101%
residual activity [15]: 107%
residual activity (Rattus norvegicus [16]): 12%
activity at 10 µM [17]: 106% (not active)
residual activity [18]: 111%
residual activity [19]: 90%
residual activity [20]: 101%
residual activity [21]: 114%
residual activity [22]: 97%
residual activity [23]: 99%
residual activity [24]: 106%
residual activity [25]: 105%
residual activity [26]: 101%
residual activity [27]: 108%
activity at 10 µM (hERG (KCNH2)): 105% (not active)
residual activity (Rattus norvegicus [28]): 94%
residual activity [29]: 123%
residual activity [30]: 107%
residual activity [31]: 98%
residual activity [32]: 98%
activity at 10 µM [33]: 93% (not active)
residual activity [34]: 108%
residual activity [35]: 94%
residual activity [36]: 101%
residual activity (Homo sapiens): 104%
residual activity [37]: 105%
residual activity [38]: 103%
residual activity [39]: 106%
residual activity [40]: 109%

Cc1nnc2n1-c1sc3c(c1C(c1ccccc1Cl)=NC2)C[C@@H](C(=O)N1CCOCC1)C3
Kd [41]: 660 nM (not active)
residual activity [1]: 65%
residual activity [2]: 123%
residual activity [3]: 97%
residual activity [4]: 96%
residual activity [5]: 91%
residual activity [6]: 88%
residual activity [7]: 100%
residual activity [8]: 92%
residual activity [9]: 103%
residual activity [10]: 106%
residual activity [11]: 102%
residual activity [12]: 95%
residual activity [13]: 102%
residual activity [14]: 88%
residual activity [15]: 103%
residual activity (Rattus norvegicus [16]): 102%
activity at 10 µM [17]: 103% (not active)
residual activity [18]: 107%
residual activity [19]: 90%
residual activity [20]: 97%
residual activity [21]: 97%
residual activity [22]: 96%
residual activity [23]: 101%
residual activity [24]: 103%
residual activity [25]: 115%
residual activity [26]: 100%
residual activity [27]: 100%
activity at 10 µM (hERG (KCNH2)): 93% (not active)
residual activity (Rattus norvegicus [28]): 101%
residual activity [29]: 106%
residual activity [30]: 104%
residual activity [31]: 82%
residual activity [32]: 84%
activity at 10 µM ([33]; target entry is the homologue from another species): 107% (not active)
residual activity [34]: 109%
residual activity [35]: 99%
residual activity [36]: 97%
residual activity (Homo sapiens): 94%
residual activity [37]: 109%
residual activity [38]: 104%
residual activity [39]: 98%
residual activity [40]: 84%
residual activity [42]: 106%
